Test results reported in patent US20090105343A1, “Cancer Therapy And Medicaments Therefor” (The University of Birmingham, priority 2004, published 2009).
pEC50: −log10 of the molar value. Entries after “also recorded” stand apart in the source; their conditions may differ.

How the values were obtained:
Format in all cases: cell-based
RT-4 = assay: Proliferation assay (ATP bioluminescence), RT-4 bladder cancer cells; settings: Homo sapiens; RT-4 cells, 96 h; read-out: Estimated dose required to inhibit bladder cancer cell proliferation by 50% (ED50)
Protocol: (§1) The action of individual agents alone and in combination was examined using a bioluminescent technique to measure changes in cellular ATP (ViaLight HS, LumiTech, Nottingham, U.K.) with previously optimised conditions according to the manufacturer's instructions (Rashid, S. F. et al. Supra). Briefly, cells were plated in 96 well white-walled tissue culture-treated plates (Fisher Scientific Ltd. Loughborough, U.K.) (cancer cell lines at 2×10^3 cells/well; PrEC at 3.5×10^3 cells/well). […] After the incubation period, 100 μl of nucleotide releasing reagent was added to each well and cells were left for 30 minutes at room temperature. Liberated ATP was quantitated by adding 20 μl of ATP monitoring reagent (containing luciferin and luciferase) and measuring luminescence with a microplate luminometer (Berthold Detection Systems, Fisher Scientific Ltd.). ATP levels were recorded in relative luciferase units and growth inhibition was expressed as a percentage of control.

EJ-28 = assay: Proliferation assay (ATP bioluminescence), EJ-28 bladder cancer cells; settings: for Sensitivity of EJ-28 proliferation to ligand treatment: EJ-28 cells, ligand alone
Protocol: as §1

p21^(waf1/cip1) = assay: Upregulation of CDKI p21(waf1/cip1); settings: 2 μM
Protocol: (§2) Cells were seeded at a density of 2×10^4/cm^2 and allowed to grow for 36 h to ensure that cells were in mid-exponential phase upon treatment. Total RNA was extracted using the GenElute RNA extraction system (Sigma) according to manufacturer's instructions. Primary cultures were serially passaged and grown to 80% confluency in standard serum-free medium. Cells were fed one day prior to isolation of total RNA using the Qiagen RNeasy Midi kit (Qiagen, Palo Alto, Calif., USA).
(§3) For real time reverse transcription-polymerase chain reaction (RT-PCR), cDNA was prepared from 1 μg of total RNA by reverse transcription with Mu-MLV (Promega Southampton, UK) at 42° C. for 60 min in the presence of 100 mM Tris-HCl, pH 9.0, 500 mM KCl and 2 mM MgCl2, 100 μM random hexamers (Pharmacia, Pisacataway, N.J.), 2 mM dNTP and 20 U RNAsin (Promega) in a 20 μl reaction volume.
(§4) Expression of specific mRNAs was quantitated using the ABI PRISM 7700 Sequence Detection System. […]
(§5) Data were expressed as Ct values (the cycle number at which logarithmic PCR plots cross a calculated threshold line) and used to determine δCt values (δCt=Ct of the target gene minus Ct of the housekeeping gene). […]

GADD45α [1] = assay: GADD45α gene induction (Q-RT-PCR); settings: 0.1 μM, 8 hr
Protocol: as §2, §3, §4, §5

DU-145 cells = assay: Cell cycle analysis (propidium iodide flow cytometry); settings: DU-145, 1 μM, after 24 hr (ctrl 41%)
Protocol: The effect of nuclear receptor ligands in combination with the HDAC inhibitors on the cell cycle was measured by staining DNA with propidium iodide (PI). Briefly, T25 flasks were seeded with 2.5×10^5 sub-confluent, exponentially proliferating cells, exposed to 100 nM 1α,25(OH)2D3 alone or combined with either 300 μM NaB or 15 nM TSA at times 0 (and re-dosed after 48 hours in 72 and 96 hr assays). After a total of 24, 48, 72 and 96 hours, cultures were harvested by trypsinising, counted and 1×10^6 cells were stained with PI buffer (10 μg/ml PI, 1% (w/v) tri-sodium citrate, 0.1% (v/v) Triton X-100, 100 μM sodium chloride (Sigma)). Cell cycle distribution was determined using a Becton-Dickinson Flow Cytometer and CellFIT Cell-Cycle Analysis software.

[2] = test system: prostate cancer cell lines; assay: Proliferation assay (ATP bioluminescence), prostate cancer cell lines, single agents and combinations
Protocol: as §1
The interactions of two compounds were assessed by measuring the mean of either the nuclear receptor ligand or the HDAC inhibitor acting alone or in combination. The mean observed combined effect was compared to the individual effects of the agents added together, using the Student's t-test. […] All other analyses were also compared using the Student's t-test.

GADD45α [3] = assay: GADD45α induction in PC-3 cells after SMRT knock down; settings: SMRT knocked down by RNAi
Excerpt: SIRNA fragments (22mers) were generated in vitro using a Dicer generation system according to the manufacturer's protocol (Gene Therapy Systems, San Diego, Calif.). Briefly, a 650 bp region from the human SMRT gene sequence corresponding to 112 to 762 was amplified using the following primers containing T7 promoter sequences;
FS: 5′-[…]-3′ and RV: 5′-[…]-3′. This was subsequently cloned into the pGEM T easy vector (Promega), using the multiple cloning sites to allow for sequencing, large scale harvest. Digestion with ECoR1 released a pure concentrated template for in vitro […] with primers containing T7 recognition sequences to generate double stranded mRNA. This was subsequently cleaved with recombinant human Dicer enzyme to generate a pool of 22mers which cover the region targeted in the 5′prime region of the SMRT gene. Five hundred ng of purified double stranded RNA 22mers were transfected into each well (2×10^5 cells/well in 24-well plates) for 12 hrs. Cells were then left for a further 72 hr to allow gene silencing and subsequently treated with 1α,25(OH)2D3 (100 nM) for 6 hr and total RNA was harvested and Q-RT-PCR for SMRT and target genes was undertaken as above.

Compound | pEC50 (RT-4) | ligand action in EJ-28 cells on co-treatment with SAHA (EJ-28; EJ-28, co-treatment with SAHA) | Sensitivity of EJ-28 proliferation to ligand treatment (EJ-28) | upregulation of the CDKI p21(waf1/cip1) (p21^(waf1/cip1)) | GADD45α induction, individual agent alone (GADD45α [1]) | cells in G1 (DU-145 cells) [%] | interaction of the ligand with SAHA on proliferation ([2]; co-treatment with SAHA, listed as 1α,25(OH)2D3) | augmentation of the ligand's action by TSA ([2]; co-treatment with TSA) | GADD45α induction by ligand alone after SMRT knock down (GADD45α [3])
C[C@H](CCC(=O)O)[C@H]1CC[C@H]2[C@@H]3[C@H](O)C[C@@H]4C[C@H](O)CC[C@]4(C)[C@H]3CC[C@]12C [CDA, chenodeoxycholic acid] | 4.96 | restored the actions | insensitive |  |  |  |  |  | 
O=C(CCCCCCC(=O)Nc1ccccc1)NO [SAHA, Suberoylanilide hydroxamic acid] |  |  |  | potent and immediate upregulation | not significant | 64 |  |  | 
C=C1/C(=C\C=C2/CCC[C@]3(C)[C@@H]([C@H](C)CCCC(C)(C)O)CC[C@@H]23)C[C@@H](O)C[C@@H]1O [Vit D, 1α,25-dihydroxyvitamin D3] |  |  | insensitive |  |  |  | did not appear to extend; also recorded: does not | augments | very strongly enhanced
